From patent publication US20070191291A1, “Compound antibacterial drugs comprising n-acetyl-d-glucosamine” (priority 2003, published 2007)

Legend:
Bacillus cereus = assay: Test Example 2: preventing formation of bacterial CGC in vitro (K-B method); format: cell-based
Procedure: (§1) E. coli (No. 33310, purchased from Chengdu Institute of Biological Products, the Ministry of Public Health) was used in the tests. Grid design was performed by using antibiotic with different concentrations and N-acetyl-D-glucosamine having an amount of from 10 mg to 300 mg. Streak plates were conducted separately, and K-B method was employed for drugs. Colonies at marginal part of drug inhibition zone were picked and were observed under microscope. If cell length was more than 50 μm and cell number was more than 5 in each visual field, it was deemed as CGC positive and was marked with “+”; while if cell length was not greater than 50 μm and cell number was within the range from 0 to 4 in each visual field, it was deemed as CGC negative and was marked with “−”. At this time, the ratio of two substances was called “effective ratio”.
(§2) Effects tests of compound preparation comprising N-acetyl-D-glucosamine and antibiotics for preventing the formation of bacterial CGC in vitro.
(§3) The tests were carried out in vitro, wherein gram-negative amphimicrodes, gram-negative anaerobes and gram-positive aerobes were separately coated on streak plates, test drugs and control drugs were separately dissolved with same volume of sterile water for injection, 10 μl of each drug was used for preparing drug-sensitive paper, K-B method was employed in the tests of drugs, and the inhibition situations of CGC formation were observed.

Bacillus proteus = assay: as above; format: cell-based
Procedure: as §1, §2, §3

Bacteroides fragilis = assay: as above; format: cell-based
Procedure: as §1, §2, §3

Citro Bacter = assay: as above; format: cell-based
Procedure: as §1, §2, §3

Diphtheroid bacillus = assay: as above; format: cell-based
Procedure: as §1, §2, §3

E. coli = assay: as above; format: cell-based
Procedure: as §1, §2, §3

Klebsiella = assay: as above; format: cell-based
Procedure: as §1, §2, §3

Listeria = assay: as above; format: cell-based
Procedure: as §1, §2, §3

Nucleic Acid Bacter = assay: as above; format: cell-based
Procedure: as §1, §2, §3

[1] = system: rats infected and not infected by Bacillus typhi murium; format: in vivo, Wistar rats; settings: rats infected or not by Bacillus typhi murium; N-acetyl-D-glucosamine (100 mg)+spiramycin (900 mg) vs only spiramycin; consecutive week; 15 rats per group
[2] = system: irritable bowel syndrome (IBS) caused by bacterial CGC; assay: Test Example 5: preventing irritable bowel syndrome (IBS) caused by bacterial CGC; format: in vivo, rats
Description: On this basis, the rats were subjected to stimulations such as electric stimulation, intragastric administration with fructus zanthoxyli water, cold, constraint etc. in order to induce IBS, and the incidence rates of IBS of two groups were observed.

[3] = compound preparation 100 mg N-acetyl-D-glucosamine + 900 mg spiramycin, control 900 mg spiramycin
[4] = compound preparation 100 mg N-acetyl-D-glucosamine + 1500 mg ampicillin-sulbactam, control drug was ampicillin-sulbactam

Substance: spiramycin
- CGC formation (Bacillus cereus; [3]): + (If cell length was more than 50 μm and cell number was more than 5 in each visual field, it was deemed as CGC positive and was marked with “+”)
- CGC formation (Bacillus cereus; [4]): + (If cell length was more than 50 μm and cell number was more than 5 in each visual field, it was deemed as CGC positive and was marked with “+”)
- CGC formation (Bacillus proteus; [3]): + (If cell length was more than 50 μm and cell number was more than 5 in each visual field, it was deemed as CGC positive and was marked with “+”)
- CGC formation (Bacillus proteus; [4]): + (If cell length was more than 50 μm and cell number was more than 5 in each visual field, it was deemed as CGC positive and was marked with “+”)
- CGC formation (Bacteroides fragilis; [3]): + (If cell length was more than 50 μm and cell number was more than 5 in each visual field, it was deemed as CGC positive and was marked with “+”)
- CGC formation (Bacteroides fragilis; [4]): + (If cell length was more than 50 μm and cell number was more than 5 in each visual field, it was deemed as CGC positive and was marked with “+”)
- CGC formation (Citro Bacter; [3]): + (If cell length was more than 50 μm and cell number was more than 5 in each visual field, it was deemed as CGC positive and was marked with “+”)
- CGC formation (Citro Bacter; [4]): + (If cell length was more than 50 μm and cell number was more than 5 in each visual field, it was deemed as CGC positive and was marked with “+”)
- CGC formation (Diphtheroid bacillus; [3]): + (If cell length was more than 50 μm and cell number was more than 5 in each visual field, it was deemed as CGC positive and was marked with “+”)
- CGC formation (Diphtheroid bacillus; [4]): + (If cell length was more than 50 μm and cell number was more than 5 in each visual field, it was deemed as CGC positive and was marked with “+”)
- CGC formation (E. coli; [3]): + (If cell length was more than 50 μm and cell number was more than 5 in each visual field, it was deemed as CGC positive and was marked with “+”)
- CGC formation (E. coli; [4]): + (If cell length was more than 50 μm and cell number was more than 5 in each visual field, it was deemed as CGC positive and was marked with “+”)
- CGC formation (Klebsiella; [3]): + (If cell length was more than 50 μm and cell number was more than 5 in each visual field, it was deemed as CGC positive and was marked with “+”)
- CGC formation (Klebsiella; [4]): + (If cell length was more than 50 μm and cell number was more than 5 in each visual field, it was deemed as CGC positive and was marked with “+”)
- CGC formation (Listeria; [3]): + (If cell length was more than 50 μm and cell number was more than 5 in each visual field, it was deemed as CGC positive and was marked with “+”)
- CGC formation (Listeria; [4]): + (If cell length was more than 50 μm and cell number was more than 5 in each visual field, it was deemed as CGC positive and was marked with “+”)
- CGC formation (Nucleic Acid Bacter; [3]): + (If cell length was more than 50 μm and cell number was more than 5 in each visual field, it was deemed as CGC positive and was marked with “+”)
- CGC formation (Nucleic Acid Bacter; [4]): + (If cell length was more than 50 μm and cell number was more than 5 in each visual field, it was deemed as CGC positive and was marked with “+”)
- positive rates of stool CGC and intestinal mucosa CGC [1]: 100%
- incidence rate of IBS ([2]; first of three values given respectively: electric stimulation): 33%
- CGCs in the rat stools after one week of drug withdrawal ([2]; rats, effective dosage for consecutive 10 days, 30 rats per group): still present
- CGCs in the stools of the rats ([2]; rats, effective dosage for consecutive 10 days, stools observed during administration and within 1 week after drug withdrawal, 30 rats per group): a large amount of CGCs appeared
- incidence rate of IBS ([2]; second of three values given respectively: intragastric administration with fructus zanthoxyli water): 33%
- incidence rate of IBS ([2]; third of three values given respectively: cold, constraint etc.): 33%
